Assay results: US12146004B2, “Polymyxin compounds and uses thereof” (priority 2014, dated 2024)
Converted amounts (≈) assume the structure as drawn.

Tests used:
Type in all cases: cell-based
Acinetobacter baumannii = tested on: Acinetobacter baumannii
Description: (§1) To evaluate the potency and spectrum of the compounds, susceptibility testing was performed against up to nine strains of each of the Gram negative pathogens, Escherichia coli, Pseudomonas aeruginosa, Klebsiella pneumoniae and Acinetobacter baumannii.
(§2) The values in Table 2 are MIC (μg/mL) against strains of E. coli, K. pneumoniae, P. aeruginosa and A. baumanii, including strains which show elevated MICs to Polymyxin.
(§3) The values in Table 2A are MIC (μg/mL).
(§4) The in vitro activity of compounds 26 and C7 (FADDI-02) against resistant bacterial strains was compared. The resistant strains included including Escherichia coli, Pseudomonas aeruginosa, Klebsiella pneumoniae and Acinetobacter baumannii strains. The data is provided in Table 2C, where the strains are identified. The values in Table 2 are MIC (μg/mL).

Escherichia coli = tested on: Escherichia coli
Description: as §1, §2, §3, §4

Klebsiella pneumoniae = tested on: Klebsiella pneumoniae
Description: as §1, §2, §3, §4

Pseudomonas aeruginosa = tested on: Pseudomonas aeruginosa
Description: as §1, §2, §3, §4

Row | Structure (SMILES) | MIC A. baumanii 056 (Acinetobacter baumannii) [mg/L] | MIC A. baumanii ATCC BAA-747 (Acinetobacter baumannii) [mg/L] | MIC A. baumanii NCTC 13424 (Acinetobacter baumannii) [mg/L] | MIC E. coli 058 (Escherichia coli) [mg/L] | MIC E. coli 061 (Escherichia coli) [mg/L] | MIC E. coli ATCC 25922 (Escherichia coli) [mg/L] | MIC E. coli NCTC 9001 (Escherichia coli) [mg/L] | MIC K. pneumoniae 063 (Klebsiella pneumoniae) [mg/L] | MIC K. pneumoniae 065 (Klebsiella pneumoniae) [mg/L] | MIC K. pneumoniae ATCC 4352 (Klebsiella pneumoniae) [mg/L] | MIC K. pneumoniae ATCC 13882 (Klebsiella pneumoniae) [mg/L] | MIC P. aeruginosa 068 (Pseudomonas aeruginosa) [mg/L] | MIC P. aeruginosa 070 (Pseudomonas aeruginosa) [mg/L] | MIC P. aeruginosa ATCC 27853 (Pseudomonas aeruginosa) [mg/L] | MIC P. aeruginosa CCUG 59347 (Pseudomonas aeruginosa) [mg/L] | MIC A. baumanii 053 (Acinetobacter baumannii) [mg/L] | MIC E. coli 059 (Escherichia coli) [mg/L] | MIC E. coli 060 (Escherichia coli) [mg/L] | MIC K. pneumoniae 062 (Klebsiella pneumoniae) [mg/L] | MIC K. pneumoniae 064 (Klebsiella pneumoniae) [mg/L] | further results
1 | CC(C)C[C@@H]1NC(=O)[C@@H](CC2CCCCC2)NC(=O)[C@H](CCN)NC(=O)[C@@H](NC(=O)[C@H](CN)NC(=O)[C@@H](NC(=O)C(CCN)c2ccc(F)cc2)C(C)O)CCNC(=O)[C@H]([C@@H](C)O)NC(=O)[C@H](CCN)NC(=O)[C@H](CCN)NC1=O (single isomer, unassigned; isomer 2) [Example 44, 4-amino-2-(4-fluorophenyl) butanoyl L-Thr-L-Dap-polymyxin [D-cyclohexylalanine]-6 heptapeptide. Isomer 2] | 8 (≈ 7.05 µM) | 0.06 (≈ 0.0529 µM) | 0.06 (≈ 0.0529 µM) | 2 (≈ 1.76 µM) | 8 (≈ 7.05 µM) | 0.25 (≈ 0.22 µM) | 0.03 (≈ 0.0264 µM) | 16 (≈ 14.1 µM) | 0.5 (≈ 0.441 µM) | 0.125 (≈ 0.11 µM) | 0.25 (≈ 0.22 µM) | 2 (≈ 1.76 µM) | 1 (≈ 0.882 µM) | 0.25 (≈ 0.22 µM) | 0.5 (≈ 0.441 µM) |  |  |  |  |  | 
2 | CCCCCC/C=C/c1ccc(C[C@H]2NC(=O)[C@H](CCN)NC(=O)[C@@H](NC(=O)[C@H](CN)NC(=O)[C@@H](NC(=O)C3CNCC(CC(C)C)C3)C(C)O)CCNC(=O)[C@H]([C@@H](C)O)NC(=O)[C@H](CCN)NC(=O)[C@H](CCN)NC(=O)[C@H](CC(C)C)NC2=O)cc1 (single isomer, unassigned; isomer 1) [Example 17, (trans-5-(isobutyl-piperidine)-3-carbonyl L-Thr-L-Dap-polymyxin [D-(4-(E)-oct-1-enyl) Phe]-6]heptapeptide Isomer 1] | 2 (≈ 1.63 µM) | 2 (≈ 1.63 µM) |  | 2 (≈ 1.63 µM) | 2 (≈ 1.63 µM) | 2 (≈ 1.63 µM) |  | 16 (≈ 13 µM) | 4 (≈ 3.26 µM) | 2 (≈ 1.63 µM) |  | 4 (≈ 3.26 µM) | 4 (≈ 3.26 µM) | 2 (≈ 1.63 µM) |  | 2 (≈ 1.63 µM) | 2 (≈ 1.63 µM) | 2 (≈ 1.63 µM) | 4 (≈ 3.26 µM) | 8 (≈ 6.52 µM) | MIC K. pneumoniae 067 (Klebsiella pneumoniae): 32 mg/L (≈ 26.1 µM)
3 | CC(C)C[C@@H]1NC(=O)[C@@H](CC2CCCCC2)NC(=O)[C@H](CCN)NC(=O)[C@@H](NC(=O)[C@H](CCN)NC(=O)[C@@H](NC(=O)C(CCN)C2CCCCC2)[C@@H](C)O)CCNC(=O)[C@H]([C@@H](C)O)NC(=O)[C@H](CCN)NC(=O)[C@H](CCN)NC1=O (single isomer, unassigned; isomer 2) [Example 69, 4-amino-2-cyclohexylbutanoyl polymyxin [D-cyclohexylalanine]-6 nonapeptide isomer 2] | 64 (≈ 56.3 µM) | 0.25 (≈ 0.22 µM) | 0.06 (≈ 0.0528 µM) | 4 (≈ 3.52 µM) | 16 (≈ 14.1 µM) | 0.06 (≈ 0.0528 µM) | 0.03 (≈ 0.0264 µM) | 16 (≈ 14.1 µM) | 0.5 (≈ 0.44 µM) | 0.25 (≈ 0.22 µM) | 0.25 (≈ 0.22 µM) | 4 (≈ 3.52 µM) | 8 (≈ 7.04 µM) | 0.25 (≈ 0.22 µM) | 0.5 (≈ 0.44 µM) | >64 |  |  |  |  | 
4 | CC(C)CC1CNCC(C(=O)N[C@H](C(=O)N[C@@H](CN)C(=O)N[C@H]2CCNC(=O)[C@H]([C@@H](C)O)NC(=O)[C@H](CCN)NC(=O)[C@H](CCN)NC(=O)[C@H](CC(C)C)NC(=O)[C@@H](Cc3ccc(Br)cc3)NC(=O)[C@H](CCN)NC2=O)C(C)O)C1 (single isomer, unassigned; isomer 1) [Example 11, (trans-5-(isobutyl-piperidine)-3-carbonyl L-Thr-L-Dap-polymyxin [D-(4-bromo Phe)]-6] hept apeptide Isomer 1] | 32 (≈ 26.8 µM) | 2 (≈ 1.67 µM) |  | 16 (≈ 13.4 µM) | 64 (≈ 53.5 µM) | 1 (≈ 0.837 µM) |  | >64 | 64 (≈ 53.5 µM) | 1 (≈ 0.837 µM) |  | 8 (≈ 6.69 µM) | 16 (≈ 13.4 µM) | 1 (≈ 0.837 µM) |  | >64 | 32 (≈ 26.8 µM) | 16 (≈ 13.4 µM) | >64 | >64 | MIC K. pneumoniae 066 (Klebsiella pneumoniae): >64 mg/L; MIC K. pneumoniae 067 (Klebsiella pneumoniae): >64 mg/L
